The source of these data is ChEMBL document CHEMBL5131536, “Novel Quinoline Compounds as EZH2 Inhibitors for Treating Cancer” (ACS Med Chem Lett, 2022).

The IC50 is the concentration at which inhibition is half-maximal.

This assay has as its target Histone-lysine N-methyltransferase EZH2 (Homo sapiens, UniProt Q15910). The experiment in a line: Inhibition of EZH2 in human G-401 cells assessed as reduction in H3K27 methylation incubated for 48 hrs by ELISA. It is filed as cell-based. On the technique in general: An ELISA detects its analyte on a solid surface through an enzyme-linked reagent.

Structures are written as SMILES. Where only a bound is given, the exact number is not on record here.

Histone-lysine N-methyltransferase EZH2, sequence (Q15910 whole entry): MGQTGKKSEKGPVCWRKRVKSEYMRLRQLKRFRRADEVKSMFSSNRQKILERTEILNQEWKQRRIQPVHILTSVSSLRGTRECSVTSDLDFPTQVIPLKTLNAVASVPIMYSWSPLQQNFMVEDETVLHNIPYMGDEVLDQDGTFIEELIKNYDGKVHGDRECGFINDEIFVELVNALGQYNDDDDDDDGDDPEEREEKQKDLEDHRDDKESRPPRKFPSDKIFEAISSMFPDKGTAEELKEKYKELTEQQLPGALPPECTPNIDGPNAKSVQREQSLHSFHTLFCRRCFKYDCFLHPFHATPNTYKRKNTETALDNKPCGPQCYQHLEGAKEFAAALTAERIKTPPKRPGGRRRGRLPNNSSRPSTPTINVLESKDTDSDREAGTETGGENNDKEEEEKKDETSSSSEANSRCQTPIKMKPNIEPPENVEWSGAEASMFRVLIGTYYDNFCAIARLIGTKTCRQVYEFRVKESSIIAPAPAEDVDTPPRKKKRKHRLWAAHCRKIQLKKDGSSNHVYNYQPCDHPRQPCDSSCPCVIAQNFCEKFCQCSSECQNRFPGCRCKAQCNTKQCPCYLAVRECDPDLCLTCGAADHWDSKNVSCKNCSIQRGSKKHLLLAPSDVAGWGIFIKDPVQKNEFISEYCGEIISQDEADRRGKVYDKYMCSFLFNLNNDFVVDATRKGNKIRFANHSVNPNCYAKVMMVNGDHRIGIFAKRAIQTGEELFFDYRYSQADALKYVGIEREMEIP

Turning to `Cc1ccc2ccc(N[C@H]3CC[C@H](CNc4ncc(CC(=O)NC5COC5)cn4)CC3)nc2c1Cl`, the IC50 was under 10 nM.

With `Cc1ccc2ccc(N[C@H]3CC[C@H](CNc4ncc(C(CO)C(=O)NC5COC5)cn4)CC3)nc2c1Cl` (stereo partly specified), the IC50 is under 10 nM.

As to `Cc1ccc2ccc(N[C@H]3CC[C@H](CNc4ncc(C(F)(F)C(=O)NC5COC5)cn4)CC3)nc2c1Cl`, the IC50 is under 10 nM.

For `Cc1ccc2ccc(N[C@H]3CC[C@H](CNc4ccc(CC(=O)NC5COC5)cn4)CC3)nc2c1Cl`, the IC50 is under 10 nM.

With `Cc1ccc2ccc(N[C@H]3CC[C@H](CNc4ncc(C(C#N)C(=O)NC5COC5)cn4)CC3)nc2c1Cl` (stereo partly specified), the IC50 is under 10 nM.

Turning to `Cc1ccc2ccc(N[C@H]3CC[C@H](CNc4ncc(C(O)C(=O)NC5COC5)cn4)CC3)nc2c1Cl` (stereo partly specified), the IC50 is under 10 nM.
